Experimental data: patent publication EP4603105A1, “PHARMACEUTICAL COMPOSITION CONTAINING CYCLIC COMPOUND HAVING SELECTIVE KRAS INHIBITORY EFFECT AGAINST HRAS AND NRAS” (CHUGAI SEIYAKU KABUSHIKI KAISHA, priority 2022, dated 2024)
*1 amine or outer side, *2 acyl side, *3 side chain or, on linkers, in order; H or OH if unused. Where a SMILES comes first, the peptide text is derived from it. Bridges are numbered along the chain shown (N, C = ends). [ ]: non-standard residue; d: D form. The star is where a group is joined. hPhe(3,5-F2-4-CF3) = N[C@@H](CCc1cc(F)c(C(F)(F)F)c(F)c1)C(=O)O; NPrPhe(4-CF3) = CCCN[C@@H](Cc1ccc(C(F)(F)F)cc1)C(=O)O; NMeGly(cPent) = CN[C@H](C(=O)O)C1CCCC1; X7 = C[C@@](N[*:1])(C(=O)[*:2])C1CC1; αMeCha = C[C@](N)(CC1CCCCC1)C(=O)O; X3 = CCC[C@](C)(N[*:1])C(=O)[*:2]; NMeD = CN[C@@H](CC(=O)O)C(=O)O; NMeL = CN[C@@H](CC(C)C)C(=O)O; αMeL = CC(C)C[C@](C)(N)C(=O)O; αMeV = CC(C)[C@](C)(N)C(=O)O; Morpholide = C1CN(*)CCO1; Aze = O=C(O)[C@@H]1CCN1; Sar = CNCC(=O)O

Key:
[1] = target: GDP-bound NRAS wild-type protein (Homo sapiens, UniProt P01111); test: Binding to NRAS by surface plasmon resonance (SPR), KD and KD ratio to KRAS; conditions: ratio of KD for GDP-bound NRAS wild-type protein to KD for KRAS
How it was run: (§1)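 GDP-loaded biotinylated Avi-tag RAS proteins (E. coli-expressed) captured on a Biotin CAPture chip at ~100–300 RU; single-cycle kinetics at 30°C, 100 µL/min, 75 s injections of rising compound concentrations. HBS pH 7.4 running buffer with 1 mM DTT, 10 mM MgCl2, 10 µM GDP, 4% DMSO. KD from 1:1 binding fit.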

HRAS wild-type protein = HRAS wild-type protein (Homo sapiens, UniProt P01112); test: Binding to HRAS by surface plasmon resonance (SPR), KD and KD ratio to KRAS; conditions: ratio of KD for HRAS wild-type protein to KD for KRAS
How it was run: as §1

[2] = tested on: human lung cancer strain NCI-H441; assay type: cell-based
How it was run: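 Readout: […] after the ATP-based reagent. Compound: serial dilutions in dimethyl sulfoxide.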

Chain of HRAS wild-type protein (P01112 whole entry): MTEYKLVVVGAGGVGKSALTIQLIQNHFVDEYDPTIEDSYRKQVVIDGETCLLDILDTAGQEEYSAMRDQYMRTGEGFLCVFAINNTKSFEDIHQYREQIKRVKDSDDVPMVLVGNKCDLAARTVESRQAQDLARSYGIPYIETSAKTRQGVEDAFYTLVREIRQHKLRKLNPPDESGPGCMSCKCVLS
Chain of GDP-bound NRAS wild-type protein (P01111 whole entry): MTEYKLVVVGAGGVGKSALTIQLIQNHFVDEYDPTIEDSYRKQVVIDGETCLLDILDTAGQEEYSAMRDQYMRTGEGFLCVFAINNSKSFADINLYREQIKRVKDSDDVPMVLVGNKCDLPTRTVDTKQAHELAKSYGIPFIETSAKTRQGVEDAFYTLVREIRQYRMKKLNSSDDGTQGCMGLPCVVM

For `CCCN1C(=O)[C@@H]2CCN2C(=O)CN(C)C(=O)[C@H]([C@@H](C)CC)NC(=O)[C@H](CC(C)C)N(C)C(=O)C[C@@H](C(=O)N2CCOCC2)N(C)C(=O)[C@H](C2CCCC2)N(C)C(=O)[C@](C)(C2CC2)NC(=O)[C@@H]2CCCN2C(=O)[C@H](CCc2cc(F)c(C(F)(F)F)c(F)c2)NC(=O)CN(C)C(=O)[C@@H]1Cc1ccc(C(F)(F)F)cc1` [PP0791] ([NMeL]I[Sar][Aze][NPrPhe(4-CF3)][Sar][hPhe(3,5-F2-4-CF3)]P[X7][NMeGly(cPent)][NMeD]-Morpholide; lactam N-11), the “NRAS /KRAS” value [1] was “C (A compound having a KD ratio of 0.1 or more and less than 3 is denoted as C)”, the “HRAS /KRAS” value (HRAS wild-type protein) was “B (a compound having 3 or more and less than 10 is denoted as B)” and the IC50 [2] was 86 nM.
In the case of `CCCN1C(=O)[C@@H]2CCN2C(=O)CN(C)C(=O)[C@H]([C@@H](C)CC)NC(=O)[C@H](CC(C)C)N(C)C(=O)C[C@@H](C(=O)N2CCOCC2)N(C)C(=O)[C@H](C2CCCC2)N(C)C(=O)[C@](C)(C(C)C)NC(=O)[C@@H]2CCCN2C(=O)[C@H](CCc2cc(F)c(C(F)(F)F)c(F)c2)NC(=O)CN(C)C(=O)[C@@H]1Cc1ccc(C(F)(F)F)cc1` [PP0792] ([NMeL]I[Sar][Aze][NPrPhe(4-CF3)][Sar][hPhe(3,5-F2-4-CF3)]P[αMeV][NMeGly(cPent)][NMeD]-Morpholide; lactam N-11), the “NRAS /KRAS” value [1] is reported as “C (A compound having a KD ratio of 0.1 or more and less than 3 is denoted as C)”, the “HRAS /KRAS” value (HRAS wild-type protein) is reported as “B (a compound having 3 or more and less than 10 is denoted as B)” and the IC50 [2] is reported as 112 nM.
For `CCCN1C(=O)[C@@H]2CCN2C(=O)CN(C)C(=O)[C@H]([C@@H](C)CC)NC(=O)[C@H](CC(C)C)N(C)C(=O)C[C@@H](C(=O)N2CCOCC2)N(C)C(=O)[C@H](C2CCCC2)N(C)C(=O)[C@](C)(CCC)NC(=O)[C@@H]2CCCN2C(=O)[C@H](CCc2cc(F)c(C(F)(F)F)c(F)c2)NC(=O)CN(C)C(=O)[C@@H]1Cc1ccc(C(F)(F)F)cc1` [PP0794] ([NMeL]I[Sar][Aze][NPrPhe(4-CF3)][Sar][hPhe(3,5-F2-4-CF3)]P[X3][NMeGly(cPent)][NMeD]-Morpholide; lactam N-11), the “NRAS /KRAS” value [1] was “C (A compound having a KD ratio of 0.1 or more and less than 3 is denoted as C)”, the “HRAS /KRAS” value (HRAS wild-type protein) was “B (a compound having 3 or more and less than 10 is denoted as B)” and the IC50 [2] was 122 nM.
With `CCCN1C(=O)[C@@H]2CCN2C(=O)CN(C)C(=O)[C@H]([C@@H](C)CC)NC(=O)[C@H](CC(C)C)N(C)C(=O)C[C@@H](C(=O)N2CCOCC2)N(C)C(=O)[C@H](C2CCCC2)N(C)C(=O)[C@](C)(CC(C)C)NC(=O)[C@@H]2CCCN2C(=O)[C@H](CCc2cc(F)c(C(F)(F)F)c(F)c2)NC(=O)CN(C)C(=O)[C@@H]1Cc1ccc(C(F)(F)F)cc1` [PP0795] ([NMeL]I[Sar][Aze][NPrPhe(4-CF3)][Sar][hPhe(3,5-F2-4-CF3)]P[αMeL][NMeGly(cPent)][NMeD]-Morpholide; lactam N-11) the “NRAS /KRAS” value [1] was “C (A compound having a KD ratio of 0.1 or more and less than 3 is denoted as C)”, the “HRAS /KRAS” value (HRAS wild-type protein) was “B (a compound having 3 or more and less than 10 is denoted as B)” and the IC50 [2] was 356 nM.
In the case of `CCCN1C(=O)[C@@H]2CCN2C(=O)CN(C)C(=O)[C@H]([C@@H](C)CC)NC(=O)[C@H](CC(C)C)N(C)C(=O)C[C@@H](C(=O)N2CCOCC2)N(C)C(=O)[C@H](C2CCCC2)N(C)C(=O)[C@](C)(CC2CCCCC2)NC(=O)[C@@H]2CCCN2C(=O)[C@H](CCc2cc(F)c(C(F)(F)F)c(F)c2)NC(=O)CN(C)C(=O)[C@@H]1Cc1ccc(C(F)(F)F)cc1` [PP0796] ([NMeL]I[Sar][Aze][NPrPhe(4-CF3)][Sar][hPhe(3,5-F2-4-CF3)]P[αMeCha][NMeGly(cPent)][NMeD]-Morpholide; lactam N-11), the “NRAS /KRAS” value [1] is reported as “C (A compound having a KD ratio of 0.1 or more and less than 3 is denoted as C)”, the “HRAS /KRAS” value (HRAS wild-type protein) is reported as “B (a compound having 3 or more and less than 10 is denoted as B)” and the IC50 [2] is reported as 438 nM.
